One series deals with S180 sarcoma. Description: Photodynamic therapy study with mice with subcutaneous S180 sarcoma. Type of series: in vivo, Kunming mice. As to conditions: for Pathological changes of tumour tissues (HE staining): 24 hours after the treatment; for Living tumour cells versus control group D (FCM) / Proportions of apoptotic and necrotic tumour cells versus control group D (FCM): 24 hours after treatments; for Mean tumour volume versus control group D: 21 days after the treatments, P<0.05; for Tumour appearance after treatment (eschars): after treatments; for Sizes of tumours versus control group D: six days after the treatments; for Tumour inhibition rate: tail vein: Duteroporphyrin 10 mg/kg, chlorin e4 sodium 20 mg/kg, 5-ALA 100 mg/kg, laser 20 minutes, 180 J/cm^2. Here is the method: In this experiment the effects of photodynamic therapy mediated by three different photosensitizers, namely Duteroporphyrin, chlorin e4 sodium and 5-ALA, on mouse S180 sarcoma were observed. Duteroporphyrin and 5-ALA are porphyrin derivatives.
40 Kunming mice with well grown subcutaneous S180 sarcoma were randomly divided into four groups: (A) Duteroporphyrin group (10 mg/kg), (B) chlorin e4 sodium group (20 mg/kg), (C) 5-ALA group (100 mg/kg) and (D) blank control group. The mice in groups A and B were subjected to irradiation 8-10 hours after tail vein injection of the photo sensitizers, while the mice in group C were subjected to irradiation 3 hours after tail vein injection of the photosensitizer. A laser with a wavelength of 630 nm was used for groups A and C, while a duel-frequency laser with wavelengths of 660 nm and 760 nm was used for group B. The local tumour sites were irradiated vertically, with the diameter of the laser spots being 1.2-1.5 cm. The whole tumour and 3-5 mm of normal tissue around the tumour were covered by the laser. The lasers were applied to groups A, B and C for 20 minutes, with a power density of 150 mW/cm^2 and an energy density of 180 J/cm^2. The mice in control group D were not subjected to irradiation.

The test system of series [1] is indomethacin-induced gastric lesions. The settings on record: rats; cited from earlier work.
Series [2] has as its system TAA- or CCl4-induced acute liver injuries. The settings on record: mice; cited from earlier work.
In series [3] the test system is advanced non-small cell lung cancer. Description: Clinical study with patients suffering from advanced non-small cell lung cancer. Type of series: in vivo, human. Here is the method:
Through pathology or cytology diagnosis, 66 advanced non-small cell lung cancer patients were selected and randomly divided into two groups. Group A had 32 patients who were treated with chlorin e4 sodium. Group B had 34 patients who were treated with both chemotherapy and radiotherapy.
For group A, chlorin e4 sodium was administered at a dosage of 2 mg per kilogram of body weight, with two thirds administered by inhalation and one third administered orally. After the irradiation target(s) had been determined, an optical fibre for laser treatment purposes was guided into the lung tumor(s) via an interstitial procedure. Irradiation light intensity was 200 J/cm^2, irradiation power was 1,000 mW, and irradiation lasted for eight to ten minutes. Laser irradiation into the tumor was two to five centimeters in depth. Irradiation was either performed phase by phase (sub-paragraph treatment) based on tumor size or performed repeatedly.
For group B, for the radiotherapy, a 15 MV X-ray radiation therapy irradiation field covered primary lung tumor lesion(s) and mediastinal lymphatic drainage area, with a dosage of 65-70 Gy, administered on every first day in a week of radiotherapy. For the chemotherapy, 20 mg cisplatin was administered by intravenous application.

For series [4] the following is noted: literature value of the reference, cited from earlier work.
For series [5] the following is noted: air-saturated water and ethanol; literature value of the reference; cited from earlier work.
The conditions of series [6]: treatment of various human ailments; cited from earlier work.
The mark [7] stands for this setting: group A (32 patients): chlorin e4 sodium 2 mg/kg inhalation and oral + interstitial laser, group B (34 patients): cisplatin 20 mg iv + radiotherapy.

We go through six molecules from patent publication US20150315202A1, “CHLORIN DERIVATIVE USEFUL IN PHOTODYNAMIC THERAPY AND DIAGNOSIS” (RMW CHO GROUP LIMITED, priority 2012, published 2015).

“Also recorded” adds a separate entry of the source. Like-named read-outs stand apart in the source and are kept apart here.

Turning to `NCC(=O)CCC(=O)O` [5-ALA], in the series with S180 sarcoma, the “Pathological changes of tumour tissues (HE staining)” value is “a wide range of tumour necrosis, tumour vascular disruption and neutrophil infiltration”; the “Living tumour cells versus control group D (FCM)” value is reported as “obviously fewer”; the “Proportions of apoptotic and necrotic tumour cells versus control group D (FCM)” value is on record as “a lot higher”; the “Mean tumour volume versus control group D” value is reported as “statistically significantly smaller”. Also, in the series with S180 sarcoma, the “Tumour appearance after treatment (eschars)” value was “thinner and brownish red in colour”; the “Sizes of tumours versus control group D” value was “no obvious difference”; the Tumour inhibition rate is given as 37.2%. For the same molecule, in the series on S180 sarcoma (after the eschars had fallen off), the “Recovery of skins and fur” value is “fully recovered; also recorded: fastest in skin repairing”.

With `C=Cc1c(C)c2cc3nc(c(C)c4[nH]c(cc5nc(cc1[nH]2)C(C)=C5CC)c(C)c4C(=O)O)[C@@H](CCC(=O)O)[C@@H]3C` [chlorin e4], the “Effect against indomethacin-induced gastric lesions” value in series [1] was “protective effect”. Besides, in series [2], the “Effect against TAA- or CCl4-induced acute liver injuries” value is recorded as “protective effect”.

Turning to `N.N.[Cl][Pt][Cl]` [cisplatin, reference compound], in series [3] (setting [7]), the “One year survival rate” value turned out to be 70.60% and the “Two years survival rate” value is given as 32.35%. Also, the “Combined complete and partial remission rate” value in series [3] (group A: chlorin e4 sodium 2 mg/kg + interstitial laser, group B: cisplatin 20 mg iv + radiotherapy) worked out at 21.30%.

For the molecule `O=S(=O)(O)c1ccc(-c2c3nc(c(-c4ccc(S(=O)(=O)O)cc4)c4ccc([nH]4)c(-c4ccc(S(=O)(=O)O)cc4)c4nc(c(-c5ccc(S(=O)(=O)O)cc5)c5ccc2[nH]5)C=C4)C=C3)cc1` [TPPS, m-tetrakis(p-sulfonatophenyl)porphine], the “Quantum yield of singlet oxygen photogeneration” value in series [4] (ethanol and detergent containing water) is listed as 0.7; in series [4] (water), 0.6. Moreover, in series [5], the Fluorescence quantum yield is 0.08.

In the case of tri-sodium copper(II) chlorin e6, the “Toxicity and side effects” value in series [6] is “no evidence of toxicity, skin sensitization or other serious side effects”.

Turning to `CC1=Cc2cc3[nH]c(cc4nc(cc5[nH]c(cc1n2)cc5C)C(C)=C4CCC(=O)O)c(CCC(=O)O)c3C` [Duteroporphyrin], in the series with S180 sarcoma, the “Pathological changes of tumour tissues (HE staining)” value is “a wide range of tumour necrosis, tumour vascular disruption and neutrophil infiltration”; the “Living tumour cells versus control group D (FCM)” value is “obviously fewer”; the “Proportions of apoptotic and necrotic tumour cells versus control group D (FCM)” value was “a lot higher”; the “Mean tumour volume versus control group D” value is reported as “statistically significantly smaller”. In the series on S180 sarcoma, the “Tumour appearance after treatment (eschars)” value was “Black eschars”, the “Sizes of tumours versus control group D” value is on record as “no obvious difference” and the Tumour inhibition rate is on record as 62.5%. Moreover, the “Recovery of skins and fur” value in the series on S180 sarcoma (mouse, in vivo) is recorded as “fully recovered”.
